From patent EP0545912B1, “1-Biphenylmethylimidazole derivatives, their preparation and their therapeutic use” (Sankyo Company Limited, priority 1991, dated 1992) come the findings set out here.

In the experiment the test system is All receptor (pressor response to angiotensin II). In words: Evaluation of AII receptor blocking activity by inhibition of pressor response to angiotensin II. In kind it is in vivo. The note with it: dose inhibiting pressor response to intravenous angiotensin II (50 ng/kg) by fifty percent; anesthetized male Wister-Imamichi rats; test compound i.v., angiotensin II injected two minutes later; 2 min. How it is done: Evaluation of All receptor blocking activity by Inhibition of pressor response to angiotensin II
The biological activity of each compound was assessed by determining the dose required to inhibit the pressor response to intravenous angiotensin II by fifty percent (ID50) in rats. Male Wister-Imamichi rats, each weighing 300 to 400 g, were anesthesized by intraperitoneal injection of 100 mg/Kg of sodium thiobutabarbital [Inactin (trade name)] and two cannulae were inserted: one into the femoral artery for measuring blood pressure and the other into the femoral vein for injecting drugs. Fifty ng/kg of angiotension II were intravenously administered at intervals of about 10 minutes, and the elevation of blood pressure (normally about 50 mmHg) was observed. After constant pressor responses to angiotensin II were obtained, a test compound was intravenously administered. Two minutes later, angiotension II was again injected, and the inhibitory effect of the test compound was estimated. The percent inhibitions of the pressor response to angiotensin II by progressive increase of the test compound was used to calculate the value of ID50. Angiotensin II was used in this test dissolved in 0.5 % bovine serum albumin (BSA) and the test compounds were dissolved in 100% dimethyl sulphoxide (DMSO).
In addition to the compounds of the invention (which are identified hereafter by the number of the one of the following Examples which illustrates their preparation), we also carried out the same experiment using a prior art compound (identified in the Table as "compound A"), which is 2-[4-(2-butyl-5-chloro-4-chloromethylimidazoll-ylmethyl)phenyl]benzoic acid, which is disclosed in Example 118 of European Patent Publication No. 253 310.
With `CCCCc1nc(C(O)C(C)C)c(C(N)=O)n1Cc1ccc(-c2ccccc2C(=O)O)cc1` (stereo not shown) [Example 48, 2-Butyl-1-[(2'-carboxybiphenyl-4-yl)methyl]-4-(1-hydroxy-2-methylpropyl)imidazole-5-carboxamide], the ID50 was 0.064 mg/kg, i.v. To `CCCc1nc(C(O)C(C)(C)C)c(C(N)=O)n1Cc1ccc(-c2ccccc2-c2nnn[nH]2)cc1` (stereo not shown) [Example 74, 4-(1-Hydroxy-2,2-dimethylpropyl)-2-propyl-1-{4-[2-(tetrazol-5-yl)phenyl]phenyl}methylimidazole-5-carboxamide] belongs 0.036 mg/kg, i.v. As for `CCCc1nc(CO)c(C(=O)O)n1Cc1ccc(-c2ccccc2-c2nnn[nH]2)cc1` [Example 36, 4-Hydroxymethyl-2-propyl-1-{4-[2-(tetrazol-5-yl)phenyl]phenyl}methylimidazole-5-carboxylic acid], the figure is 0.0062 mg/kg, i.v. As for `CCCCc1nc(CO)c(C(=O)NCC(=O)O)n1Cc1ccc(-c2ccccc2C(=O)O)cc1` [Example 55, N-Carboxymethyl-2-butyl-1-[(2'-carboxybiphenyl-4-yl)-methyl]-4-hydroxymethylimidazole-5-carboxamide], the figure is 0.23 mg/kg, i.v. Consider `CCCCc1nc(C(O)C(C)(C)C)c(C(N)=O)n1Cc1ccc(-c2ccccc2-c2nnn[nH]2)cc1` (stereo not shown) [Example 75, 2-Butyl-4-(1-hydroxy-2,2-dimethylpropyl)-1-{4-[2-(tetrazol-5-yl)phenyl]phenyl}methylimidazole-5-carboxamide], for which the ID50 is given as 0.11 mg/kg, i.v. Consider `CCCc1nc(C(O)C(C)C)c(C(N)=O)n1Cc1ccc(-c2ccccc2-c2nnn[nH]2)cc1` (stereo not shown) [Example 76, 4-(1-Hydroxy-2-methylpropyl)-2-propyl-1-{4-[2-(tetrazol-5-yl)phenyl]phenyl}methylimidazole-5-carboxamide], for which the ID50 is on record as 0.022 mg/kg, i.v. Regarding `CCCCc1nc(C(O)CC)c(C(N)=O)n1Cc1ccc(-c2ccccc2C(=O)O)cc1` (stereo not shown) [Example 46, 2 -Butyl-1-[(2'-carboxybiphenyl-4-yl)methyl]-4-(1-hydroxypropyl)imidazole-5-carboxamide], the ID50 is on record as 0.18 mg/kg, i.v. To `CCCCc1nc(C(O)C(C)(C)C)c(C(N)=O)n1Cc1ccc(-c2ccccc2C(=O)O)cc1` (stereo not shown) [Example 59, 2-Butyl-1-[(2'-carboxybiphenyl-4-yl)methyl]-4-(1-hydroxy-2,2-dimethylpropyl)imidazole-5-carboxamide] belongs 0.066 mg/kg, i.v.

As for `CCCc1nc(C(O)C(C)(C)C)c(C(N)=O)n1Cc1ccc(-c2ccccc2C(=O)O)cc1` (stereo not shown) [Example 60, 1-[(2'-Carboxybiphenyl-4-yl)methyl]-4-(1-hydroxy-2,2-dimethylpropyl)-2-propylimidazole-5-carboxamide], the ID50 is reported as 0.134 mg/kg, i.v.

Take `CCCCc1nc(C(C)O)c(C(=O)O)n1Cc1ccc(-c2ccccc2-c2nnn[nH]2)cc1` (stereo not shown) [Example 44, 2-Butyl-4-(1-hydroxyethyl)-1-{4-[2-(tetrazol-5-yl)phenyl]phenyl}methylimidazole-5-carboxylic acid]: the ID50 was 0.0082 mg/kg, i.v. To `CCCCc1nc(CO)c(C(=O)O)n1Cc1ccc(-c2ccccc2-c2nnn[nH]2)cc1` [Example 39, 2-Butyl-4-hydroxymethyl-1-{4-[2-(tetrazol-5-yl)-phenyl]phenyl}methylimidazole-5-carboxylic acid] belongs 0.010 mg/kg, i.v; to `CCCCc1nc(C(C)O)c(C(N)=O)n1Cc1ccc(-c2ccccc2C(=O)O)cc1` (stereo not shown) [Example 45, 2-Butyl-1-[(2'-carboxybiphenyl-4-yl)methyl]-4-(1-hydroxyethyl) imidazol-5-carboxamide], 0.19 mg/kg, i.v; to `CCCCc1nc(CCl)c(Cl)n1Cc1ccc(-c2ccccc2C(=O)O)cc1` [compound A, 2-[4-(2-butyl-5-chloro-4-chloromethylimidazoll-ylmethyl)phenyl]benzoic acid, reference compound], 3.3 mg/kg, i.v. As for `CCCCc1nc(CO)c(C(=O)O)n1Cc1ccc(-c2ccccc2C(=O)O)cc1` [Example 5, 2-Butyl-1-[(2'-carboxybiphenyl-4-yl)methyl]-4-hydroxymethylimidazole-5-carboxylic acid], the figure is 0.22 mg/kg, i.v. As for `CCCCc1nc(C(C)O)c(C(=O)O)n1Cc1ccc(-c2ccccc2C(=O)O)cc1` (stereo not shown) [Example 11, 2-Butyl-1-[(2'-carboxybiphenyl-4-yl)methyl]-4-(1-hydroxyethyl) imidazole-5-carboxylic acid], the figure is 0.25 mg/kg, i.v; as for `CCCc1nc(C(C)O)c(C(=O)O)n1Cc1ccc(-c2ccccc2-c2nnn[nH]2)cc1` (stereo not shown) [Example 41, 4-(1-Hydroxyethyl)-2-propyl-1-{4-[2-(tetrazol-5-yl)phenyl]phenyl}methylimidazole-5-carboxylic acid], 0.0063 mg/kg, i.v.
